Measured values published in patent US6514997B2, “Antipicornaviral compounds and compositions, their pharmaceutical uses, and materials for their synthesis” (Agouron Pharmaceuticals, Inc., priority 1999, dated 2003).
Where two headings read alike, the source gives them in different places.

What was measured:
[1] = test system: H1-HeLa cells; experiment: Cytotoxicity (CC50) in mock-infected H1-HeLa cells, XTT dye reduction; type: cell-based, human
Experimental: (§1) In this cell protection assay, the ability of compounds to protect cells against HRV infection was measured by the XTT dye reduction method, which is described in Weislow et al., J. Natl. Cancer Inst. […] H1-HeLa cells were infected with HRV-14 at a multiplicity of infection (m.o.i.) of 0.13 (virus particles/cell) or mock-infected with medium only. Infected or mock-infected cells were resuspended at 8×10^5 cells per mL, and incubated with appropriate concentrations of the compounds to be tested. Two days later, XTT/PMS was added to test plates and the amount of formazan produced was quantified spectrophotometrically at 450/650 nm. […] The therapeutic index (TI) was calculated by dividing the CC50 value by the EC50 value.
(§2) All strains of human rhinovirus (HRV) for use in this assay were purchased from American Type Culture Collection (ATCC), except for HRV serotype-14 (produced from the infectious cDNA clone constructed by Dr. Robert Rueckert, Institute for Molecular Virology, University of Wisconsin, Madison, Wis.). HRV stocks were propagated and viral assays were performed in H1-HeLa cells (ATCC). Cells were grown in minimal essential medium with 10% fetal bovine serum, available from Life Technologies (Gaithersburg, Md.).
(§3) Coxsackievirus types A-21 (CAV-21) and B3 (CVB3) were purchased from American Type Culture Collection (ATCC, Rockville, Md.). Virus stocks were propagated and antiviral assays were performed in H1-HeLa cells (ATCC). Cells were grown in minimal essential medium with 10% fetal bovine serum (Life Technologies, Gaithersburg, Md.). The ability of the compounds of this invention to protect cells against either CAV-21 or CVB3 infection was measured by the XTT dye reduction method. This method is described in Weislow et al., J. Natl. Cancer Inst. […] H1-HeLa cells were infected with CAV-21 or CVB3 at a multiplicity of infection (m.o.i.) of 0.025 or 0.075, respectively, or mock-infected with medium only. H1-HeLa cells were plated at 4×10^4 cells per well in a 96-well plate and incubated with appropriate concentrations of the test compound. One day (CVB3) or two days (CAV-21) later, XTT/PMS was added to test plates and the amount of formazan produced was quantified spectrophotometrically at 450/650 nm. […] The therapeutic index (TI) was calculated by dividing the CC50 by the EC50.

[2] = as above; type: cell-based, human; details: human, H1-HeLa cells, mock-infected; line of HRV-14
Experimental: as §1, §2, §3

[3] = test system: HRV-14; experiment: Antirhinoviral H1-HeLa cell culture assay (XTT cell protection, EC50), HRV-14; type: cell-based, human rhinovirus (HRV) serotype-14 in H1-HeLa cells; details: Rhinovirus B, HRV14, H1-HeLa
Experimental: (§4) Antirhinoviral H1-HeLa Cell Culture Assay:
as §1, §2

[4] = test system: strains of human rhinovirus (HRV); experiment: Antirhinoviral H1-HeLa cell culture assay (XTT cell protection, EC50), other HRV strains; type: cell-based, human rhinovirus in H1-HeLa cells; details: read-out: EC50
Experimental: as §4
In this cell protection assay, the ability of compounds to protect cells against HRV infection was measured by the XTT dye reduction method, which is described in Weislow et al., J. Natl. Cancer Inst. (1989), vol. 81, 577-586. H1-HeLa cells were infected with HRV-14 at a multiplicity of infection (m.o.i.) of 0.13 (virus particles/cell) or mock-infected with medium only. Infected or mock-infected cells were resuspended at 8×10^5 cells per mL, and incubated with appropriate concentrations of the compounds to be tested. Two days later, XTT/PMS was added to test plates and the amount of formazan produced was quantified spectrophotometrically at 450/650 nm. […] The therapeutic index (TI) was calculated by dividing the CC50 value by the EC50 value.
as §2

[5] = target: T1, Recombinant rhinovirus 3C protease, serotype 14 (Human rhinovirus 14, UniProt P03303); experiment: Inhibition of rhinovirus 3C protease (FRET assay, kobs/[I]), serotype 14; type: biochemical; details: pH 7.6; HRV-14; read-out: kobs/[I] (3C protease inhibition activity)
T1 construct: Recombinant rhinovirus 3C proteases; made in house
T1 sequence (P03303 1538-1719): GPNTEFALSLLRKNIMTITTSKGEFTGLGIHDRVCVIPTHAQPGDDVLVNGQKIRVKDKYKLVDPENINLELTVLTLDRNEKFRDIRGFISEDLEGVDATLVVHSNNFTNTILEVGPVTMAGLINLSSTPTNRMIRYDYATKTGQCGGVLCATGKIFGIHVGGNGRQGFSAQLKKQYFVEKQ
Experimental: Inhibition of Rhinovirus 3C Protease:
Stock solutions (50 mM, in DMSO) of various compounds were prepared; dilutions were in the same solvent. Recombinant rhinovirus 3C proteases (see Birch et al., “Purification of recombinant human rhinovirus 14 3C protease expressed in Escherichia coli,” Protein Expr. Pur. (1995), vol. 6(5), 609-618) from serotypes 14, 16, and 2 were prepared by the following standard chromatographic procedures: (1) ion exchange using Q Sepharose Fast Flow from Pharmacia; (2) affinity chromatography using Affi-Gel Blue from Biorad; and (3) sizing using Sephadex G-100 from Pharmacia. Each assay sample contained 2% DMSO, 50 mM tris pH 7.6, 1 mM EDTA, a test compound at the indicated concentration, approximately 1 μM substrate, and 50-100 nM protease. The kobs/I values were obtained from reactions initiated by addition of enzyme rather than substrate. RVP activity was measured in the fluorescence resonance energy transfer assay. The substrate was (N-terminal) DABCYL-([…]-EDANS. In the uncleaved peptide, the EDANS fluorescence was quenched by the proximal DABCYL moiety. When the peptide was cleaved, the quenching was relieved, and activity was measured as an increase in fluorescence signal. The tabulated data in the column designated kobs/[I] were measured from progress curves in enzyme start experiments.

[6] = Human rhinovirus sp., HRV10, H1-HeLa, HRV-10

In the case of `CCOC(=O)/C=C/[C@H](CCC(N)=O)NC(=O)[C@H](Cc1ccccc1)n1cccc(NC(=O)C2SCCS2)c1=O` [Compound 10, trans-(2′S,4S)-6-Carbamoyl-4-(2′-{3″-[([1′″,3′″]dithiolane-2′″-carbonyl)amino]-2″-oxo-2″H-pyridin-1″-yl}-3′-phenylpropionylamino)hex-2-enoic Acid Ethyl Ester], the CC50 ([1]; line of HRV-1A) is reported as over 10000 nM, the CC50 ([1]; line of HRV-10) is reported as over 10000 nM and the CC50 at 2 days [2] is reported as over 10000 nM. The EC50 ([3]; HRV-14, read-out: EC50) was 104 nM, the EC50 ([4]; H1-HeLa, HRV-1A) was 1180 nM and the EC50 [4, 6] was 1410 nM. It also gave a kinact/KI [5] of 113000 M⁻¹ s⁻¹.
Work on `CCOC(=O)/C=C/[C@H](C[C@H]1CCNC1=O)NC(=O)[C@H](Cc1ccccc1)n1cccc(NC(=O)OCc2ccccc2)c1=O` [Compound 21, trans-(2′S,3′″R,4S)-4-[2′-(3″-Benzyloxycarbonylamino-2″-oxo-2″H-pyridin-1″-yl)-3′-phenylpropionylamino]-5-(2′″-oxopyrrolidin-3′″-yl)pent-2-enoic Acid Ethyl Ester] yielded a CC50 at 2 days [2] of over 10000 nM, an EC50 [3] of 469 nM and a kinact/KI [5] of 6340 M⁻¹ s⁻¹.
In the case of `CCOC(=O)/C=C/[C@H](C[C@@H]1CCNC1=O)NC(=O)Cn1cccc(NC(=O)c2cc(C)on2)c1=O` [Compound 22, trans-(4S,3″″S)-4-(2′-{3″-[(5′″-Methylisoxazole-3′″-carbonyl)amino]-2″-oxo-2″H-pyridin-1″-yl}acetylamino)-5-(2″″-oxopyrrilidin-3″″-yl)pent-2-enoic Acid Ethyl Ester], the CC50 at 2 days [2] is reported as over 10000 nM, the EC50 [3] is reported as 1000 nM and the kinact/KI [5] is reported as 18500 M⁻¹ s⁻¹.
In the case of `O=C1OCC/C1=C\[C@H](C[C@@H]1CCNC1=O)NC(=O)[C@H](Cc1ccc(F)cc1)n1cccc(NC(=O)c2cc(Cl)on2)c1=O` [Compound 23, trans-(2″S,2″S,3″″″S)-5-Chloroisoxazole-3-carboxylic Acid (1′-{2″-(4′″-fluorophenyl)-1″-[2″″-(2′″″-oxodihydrofuran-3′″″-ylidene)-1″″-(2″″″-oxopyrrolidin-3″″″-ylmethyl)ethylcarbamoyl]ethyl}-2′-oxo-1′,2′′-dihydropyridin-3′-yl)amide], the CC50 at 2 days [2] is reported as over 10000 nM, the EC50 ([3]; HRV-14, read-out: EC50) is reported as 64 nM and the kinact/KI [5] is reported as 385000 M⁻¹ s⁻¹.
In the case of `CCOC(=O)/C=C/[C@H](C[C@@H]1CCNC1=O)NC(=O)[C@H](Cc1ccc(F)cc1)n1cccc(NC(=O)c2cc(C)on2)c1=O` [Compound 25, trans-(2′S,3′″″S,4S)-4-(3′-(4″-Fluorophenyl)-2′-{3′″-[(5″″-methylisoxazole-3″″-carbonyl)amino]-2′-oxo-2′″H-pyridin-1′″-yl}propionylamino)-5-(2′″″-oxopyrrolidin-3′″″-yl)pent-2-enoic Acid Ethyl Ester], the CC50 ([1]; line of HRV-1A) is reported as over 10000 nM, the CC50 ([1]; line of HRV-2) is reported as over 10000 nM and the CC50 ([1]; line of HRV-3) is reported as over 10000 nM. The CC50 ([1]; line of HRV-9) was over 10000 nM, the CC50 ([1]; line of HRV-10) was over 10000 nM and the CC50 ([1]; line of HRV-16) was over 10000 nM. For the same compound, the CC50 ([1]; line of HRV-25) was over 10000 nM, the CC50 ([1]; line of HRV-39) was over 10000 nM and the CC50 ([1]; line of HRV-87) was over 10000 nM. The CC50 at 2 days [2] was over 10000 nM, the EC50 [3] was 2 nM and the EC50 ([4]; H1-HeLa, HRV-1A) was 15 nM. For the same compound, the EC50 ([4]; H1-HeLa, HRV-2) was 4 nM, the EC50 ([4]; Human rhinovirus sp., HRV3, H1-HeLa, HRV-3) was 4 nM and the EC50 ([4]; Human rhinovirus sp., HRV9, H1-HeLa, HRV-9) was 10 nM. It also gave an EC50 [4, 6] of 4 nM, an EC50 ([4]; Human rhinovirus sp., HRV16, H1-HeLa, HRV-16) of 5 nM and an EC50 ([4]; Human rhinovirus sp., HRV25, H1-HeLa, HRV-25) of 22 nM. The EC50 ([4]; Human rhinovirus sp., HRV39, H1-HeLa, HRV-39) was 9 nM, the EC50 ([4]; Human rhinovirus sp., HRV87, H1-HeLa, HRV-87) was 8 nM and the kinact/KI [5] was 1.25e+06 M⁻¹ s⁻¹.
With `CC[C@@H](C(=O)N[C@H](/C=C/C(=O)OC1CCCC1)C[C@@H]1CCNC1=O)n1cccc(NC(=O)c2cc(Cl)on2)c1=O` [Compound 29, trans-(2′S,3″″S,4S)-4-(2′-{3″-[(5′″-Chloroisoxazole-3′″-carbonyl)amino]-2″-oxo-2″H-pyridin-1″-yl}butyrylamino)-5-(2″″-oxopyrroldin-3″″-yl)pent-2-enoic Acid Cyclopentyl Ester] the CC50 ([1]; line of HRV-1A) was over 10000 nM, the CC50 ([1]; line of HRV-10) was over 10000 nM and the CC50 at 2 days [2] was over 10000 nM. It also gave an EC50 [3] of 79 nM, an EC50 ([4]; H1-HeLa, HRV-1A) of 46 nM and an EC50 [4, 6] of 46 nM. For the same compound, the kinact/KI [5] was 148000 M⁻¹ s⁻¹.
In the case of `CCOC(=O)/C=C/[C@H](CCC(N)=O)NC(=O)[C@H](Cc1ccccc1)n1cccc(NC(=O)c2cc(Cl)on2)c1=O` [Compound 30, trans-(2′S,4S)-6-Carbamoyl-4-(2′-{3″-[(5′″-chloroisoxazole-3′″-carbonyl)amino]-2″-oxo-2″H-pyridin-1″-yl}-3′-phenylpropionylamino)hex-2-enoic Acid Ethyl Ester], the CC50 at 2 days [2] is reported as over 10000 nM, the EC50 ([3]; HRV-14, read-out: EC50) is reported as 24 nM and the kinact/KI [5] is reported as 134000 M⁻¹ s⁻¹.
For `CC[C@@H](C(=O)N[C@H](/C=C/C(=O)O)C[C@@H]1CCNC1=O)n1cccc(NC(=O)c2cc(C)on2)c1=O` [Compound 35, trans-(2S,3″″S,4S)-4-(2′-{3″-[(5′″-Methylisoxazole-3′″-carbonyl)amino]-2″-oxo-2″H-pyridin-1″-yl}butyrylamino)-5-(2″″-oxopyrrolidin-3″″-yl)pent-2-enoic Acid], the CC50 at 2 days [2] was over 10000 nM, the EC50 [3] was over 10000 nM and the kinact/KI [5] was 220 M⁻¹ s⁻¹.
`CCOC(=O)/C=C/[C@H](CCC(N)=O)NC(=O)[C@@H]1CCc2ccc(NC(=O)OCc3ccccc3)c(=O)n21` [Compound 36, trans-(3′S,4S)-4-[(6′-Benzyloxycarbonylamino-5′-oxo-1′,2′,3′,5′-tetrahydroindolizine-3′-carbonyl)amino]-6-carbamoylhex-2-enoic Acid Ethyl Ester] gave a CC50 at 2 days [2] of over 100000 nM, an EC50 ([3]; HRV-14, read-out: EC50) of 9000 nM and a kinact/KI [5] of 4540 M⁻¹ s⁻¹.
In the case of `C#CC[C@@H](C(=O)N[C@H](/C=C/C(=O)O)C[C@@H]1CCNC1=O)n1cccc(NC(=O)c2cc(C)on2)c1=O` [Compound 43, trans-(2′S,3′″″S,4S)-4-[2′-(3″-{[1′″-(5″″-Methylisoxazol-3″″-yl)methanoyl]amino}-2′″-oxo-2′″H-pyridin-1′″-yl)pent-4″-ynoylamino]-5-(2′″″-oxopyrrolidin-3′″″-yl)pent-2-enoic Acid], the CC50 at 2 days [2] is reported as over 10000 nM, the EC50 [3] is reported as over 10000 nM and the kinact/KI [5] is reported as 382 M⁻¹ s⁻¹.
